# Reference: US8138314B2, “Compositions and methods of monoclonal and polyclonal antibodies specific for T cell subpopulations” (Beth Israel Deaconess Medical Center, Inc., priority 2000, dated 2012)
# Experiments:
# Assay type in all cases: cell-based, human
# invariant NK T cells = assay: 6B11 FACS sort or magnetic bead immunoaffinity purification of PBMC followed by expansion; settings: for Yield of invariant T cells: addition during expansion of 6B11 bead purified cells (FIGS. 12-17)
# Method: Starting with PBMC in which approximately 0.05% of the lymphocytes in PBMC are invariant T cells, approximately 5-30% of the purified and expanded cells were invariant T cells.
# PBMC or another tissue source is blocked with autologous serum at 4° C. An antibody reactive with invariant T cells (e.g., 6B11 or 3A6 antibody) is added at a ratio of about 1-10 μg antibody/10^7-8 PBMC and incubated for 20 minutes at 4° C. The antibody used in this method may be directly labeled with a conjugate such as FITC or biotin, or the antibody may be indirectly labeled with second reagent (e.g., anti-IgG-Fluorochrome or streptavidin-Fluorochrome). One or more other antibodies labeled with different fluorophores may also be added (FIGS. 7A-7C and 9). The solution of cells and antibodies is then washed using PBS or any other physiological buffer to remove unbound antibody.
# If desired, the settings of the FACS cell sorter may be adjusted using either a positive (e.g., general anti-T cell antibody) or negative control antibody. The sample of interest may be analyzed at a rate of approximately 100 million cells per hour using a high speed FACS sorter (e.g., ‘MoFlo’FACS sorter). The purified T cells may be expanded in T cell media [e.g., 10% Fetal Bovine or human autologous or AB pooled serum in RPMI-1640 or equivalent media supplemented with buffer (e.g. Hepes), glutamine, and antibiotic (e.g., gentamicin)] in the presence of a mitogen such as PHA, an anti-CD3 antibody, the 6B11 antibody, the 3A6 antibody, and/or α-GalCer antigenic stimulus CD3 monoclonal antibody (Exley et al. 1997 and 1998, supra; Wilson et al., Nature 391:177, 1998). The antibody may be in solution or plate bound. Irradiated autologous feeders and IL-2 (10-100 U/ml) may also be added immediately or added at any time point during expansion. IL-7 (˜1-10 ng/ml) and/or IL-15 (˜1-10 ng/ml) may increase invariant NK T cells yields (e.g. Wilson et al. 1998, supra; van der Vliet et al. Journal of Immunological Methods 247:61-72, 2000). Dexamethasone or a related selective immune suppressive agent (˜1 μM) may preferentially enhance the growth of invariant NK T cells while inhibiting growth of conventional T cells (e.g. Milner et al., J. Immunol. 163(5):2522-25229, 1999). The media is replaced about twice a week with fresh media. During or subsequent to expansion (e.g., 2-4 weeks after expansion has begun), the T cells may be phenotypically analyzed by FACS. This analysis may be performed by staining with 6B11, anti-Vα24, anti-Vβ11, anti-CD4, anti-CD8αβ, or anti-CD161 antibodies.
# PBMC or another tissue source is blocked with 1-10% autologous serum by mixing at 4° C. in PBS or other physiological buffer. One or more antibodies that are reactive with invariant T cells (e.g., 6B11 or 3A6 antibody) is added at a ratio of about 1-10 μg monoclonal antibody/10^7-8 PBMC is incubated for 20 minutes at 4° C. The antibody used in this method may be directly labeled with a conjugate such as FITC or biotin or the antibody may be indirectly labeled with second reagent (e.g., anti-IgG-Fluorochrome or streptavidin-Fluorochrome). One or more other antibodies labeled with different fluorophores may also be added (FIGS. 7A-7C and 9). The solution of cells and antibodies is then washed using PBS or any other physiological buffer. Magnetic beads, such as ˜10-100 μl Miltenyi MACS Microbeads Anti-mouse IgG #484 or MACS Steptavidin Microbeads #481 per 10^7-8 PBMC; 10^5-7 Dynal Anti-IgG #M450 beads per 10^7-8 PBMC are added and the solution is mix at 4° C. […] The washed, purified cells are placed into multi-wells with T cell media [10% Fetal Bovine or human autologous or AB pooled serum in RPMI-1640 or equivalent media supplemented with buffer (e.g. Hepes), glutamine, and antibiotic (e.g. gentamicin)]. The cells may be expanded using a monoclonal antibody that is directly bound to the beads or in solution. […]
# [1] = tested on: Vα24^+ Vβ11^+ invariant NK T cells; assay: Ex vivo expansion of FACS purified Vα24^+ T cells with α-GalCer and autologous irradiated PBMCs, flow cytometry
# Method: (§1) Peripheral blood (10-20 ml) was drawn in heparin containing tubes from healthy donors and prostate cancer patients who had given their informed consent. PBMCs were isolated using Ficoll-Paque (Amersham Pharmacia, Uppsala, Sweden). Vα24 positive T cells were stained with an anti-Vα24 monoclonal antibody (C15) (Coulter, Miami, Fla.) followed by a goat anti-mouse IgG (H^+L) FITC conjugate (KPL, Gaithersburg, Md.) and were sorted by high speed FACS (Modular Flow FACS, Cytomation, Boulder, Colo.) (Dellabona et al., J. Exp. Med. 180:1171, 1994). Autologous PBMCs were irradiated (5000 rads) and used as APCs. The FACS purified Vα24^+ cells were initially co-cultured in 96 well flat bottomed plates (approximately 20,000 per well) with equal numbers of autologous irradiated PBMCs in the presence of α-GalCer (50 ng/ml, KRN7000, Kirin Brewery Co., Gunma, Japan) and recombinant IL-2 (100 U/ml) (National Cancer Institute, Bethesda, Md.). Cultures were then gradually expanded into 24 well plates using the same medium. In some cultures, human recombinant IL-12 (1 ng/ml) (Genetics Institute, Cambridge, Mass.) was added during the last week of culture.
# Phenotypic analysis of α-GalCer expanded cells was performed by two or three color flow cytometery after three to four weeks in culture. Previous reports have shown that dual staining for Vα24 and Vβ11 is a marker of invariant NK T cells, as Vα24 and Vβ11 are used very infrequently by bulk T cells (Dellabona et al., J. Exp. Med. 180:1171, 1994; Exley et al., J. Exp. Med. 186:109, 1997; Prussin and Foster J. Immunol. 159:5862, 1997). Antibodies used were anti-Vα24 PE, anti-Vβ11 FITC, anti-CD8β PE (Immunotech), anti-CD3 Cychrome, anti-CD161 PE, and anti-CD4 Cychrome (PharMingen, La Jolla, Calif.). As described previously (Exley et al., J. Exp. Med. 186:109, 1997; Exley et al., J. Exp. Med. 188:867, 1998), approximately 1×10^6 cells were suspended in 50 μl of FACS buffer (phosphate buffered saline with 1% fetal bovine serum and 0.1% NaN3) in single wells of 96 well plates (Exley et al., J. Exp. Med. 186:109, 1997; Exley et al, J. Exp. Med. 188:867, 1998). Non-specific antibody binding was blocked by pre-incubating cells with 10% human serum for 15 minutes on ice. Antibodies were then added to cell suspensions and incubated for 20 minutes on ice. Cells were washed twice with FACS buffer and analyzed using a FACScan (Becton Dickinson) with Cell Quest Software.
# Due to the small numbers of invariant NK T cells in peripheral blood, one round of ex vivo expansion was carried out to further assess the frequency and function of these cells. Invariant NK T cells from healthy donors and advanced prostate cancer patients were isolated from peripheral blood through an initial FACS purification with a Vα24 specific monoclonal antibody, followed by selective expansion in vitro for three to four weeks with α-GalCer and autologous irradiated PBMCs as a source of APCs. T cells were then analyzed by dual staining with Vα24 and Vβ11 or 6B11 monoclonal antibodies.
# [2] = tested on: CD1d-reactive Vα24^+Vβ11^+ T cell lines; assay: Ex vivo expansion of invariant NK T cell lines with IL-12, stimulation with anti-CD3 and CD161 antibody; settings: for IFN-γ / IL-4 / Proliferation: plate-bound anti-CD3 and excess CD161 antibody
# Description: NK T cells, CD1d-reactive T cells, or JαQ^+ T cells may be biased towards Th1-like NK or lymphokine-activated killer (LAK)-like cytotoxicity of invariant T cells, as well as, IFN-γ production to potentially augment their in vivo anti-tumor or anti-pathogen activity.
# [3] = tested on: prostate cancer derived invariant NK T cells; assay: IL-12 treatment of prostate cancer derived invariant NK T cells during last week of culture, cytokine ELISA
# Method: as §1, with “Cultures were then gradually expanded into 24 well plates using the same medium. In some cultures, human recombinant IL-12 (1 ng/ml) (Genetics Institute, Cambridge, Mass.) was added during the last week of culture.” left out
# In addition to being present at reduced levels, invariant NK T cells have reduced activity in prostate cancer patients. […] Released cytokine levels were determined in triplicates by capture ELISA with matched antibody pairs in relation to cytokine standards (Endogen, Inc. Cambridge, Mass.). […]
# As invariant NK T cells may contribute to the anti-tumor effects of IL-12, it was next determined whether these cancer patient derived cells could respond to IL-12. […]
# [4] = addition during expansion, at the concentrations tested (FIGS. 12-17)
# [5] = expansion using α-GalCer after expansion using 6B11
molecule,measurement,setting,value
IL-15: cytokine added to T cell medium at 10 ng/ml,Yield of invariant T cells,invariant NK T cells,increased the yield of invariant T cells
same,Purity of invariant T cells,invariant NK T cells; [4],did not increase the purity of invariant T cells
"CCCCCCCCCCCCCCCCCCCCCCCCCC(=O)N[C@@H](CO[C@H]1O[C@H](CO)[C@H](O)[C@H](O)[C@H]1O)[C@H](O)[C@H](O)CCCCCCCCCCCCCC [α-GalCer, α-galactosylceramide]",Number of invariant T cells,invariant NK T cells; [5],did increase the number of invariant T cells
same,Purity of invariant T cells,invariant NK T cells; [5],did not improve the purity of invariant T cells
same,Invariant NK T cells among expanded cells,[1]; androgen ablation refractory prostate cancer patient (FIG. 21B),13.6%
same,Invariant NK T cells among expanded cells,[1]; androgen ablation treated prostate cancer patient in remission (FIG. 21C),75%
same,Invariant NK T cells among expanded cells,[1]; healthy donor (FIG. 21A),98.5%
same,Vα24^+ Vβ11^+ population of total cells,"[1]; healthy donor, α-GalCer and autologous irradiated PBMCs (FIG. 20B)",94.4%
same,"Recovery of Vα24^+ Vβ11^+ invariant NK T cells, mean",[1]; healthy donors (FIG. 21D),> 80%
same,"Recovery of Vα24^+ Vβ11^+ invariant NK T cells, mean",[1]; series of advanced androgen independent prostate cancer patients (FIG. 21D),10%
same,Expanded Vα24^+ Vβ11^+ T cells expressing CD161,"[1]; series of healthy donors, each donor",> 70%
phytohemagglutinin [PHA],Vα24^+ Vβ11^+ T cell population after stimulation,[1]; FACS purified Vα24^+ T cells stimulated with mitogen (FIG. 20A),yielded only a minor population of Vα24^+ Vβ11^+ T cells
"IL-12: human recombinant IL-12 (Genetics Institute), cytokine biasing T cells towards Th1 responses (protein, UniProt P29459 23-219; P29460 23-328, looked up) Interleukin-12 subunit alpha: RNLPVATPDPGMFPCLHHSQNLLRAVSNMLQKARQTLEFYPCTSEEIDHEDITKDKTSTVEACLPLELTKNESCLNSRETSFITNGSCLASRKTSFMMALCLSSIYEDLKMYQVEFKTMNAKLLMDPKRQIFLDQNMLAVIDELMQALNFNSETVPQKSSLEEPDFYKTKIKLCILLHAFRIRAVTIDRVMSYLNAS Interleukin-12 subunit beta: IWELKKDVYVVELDWYPDAPGEMVVLTCDTPEEDGITWTLDQSSEVLGSGKTLTIQVKEFGDAGQYTCHKGGEVLSHSLLLLHKKEDGIWSTDILKDQKEPKNKTFLRCEAKNYSGRFTCWWLTTISTDLTFSVKSSRGSSDPQGVTCGAATLSAERVRGDNKEYEYSVECQEDSACPAAEESLPIEVMVDAVHKLKYENYTSSFFIRDIIKPDPPKNLQLKPLKNSRQVEVSWEYPDTWSTPHSYFSLTFCVQVQGKSKREKKDRVFTDKTSATVICRKNASISVRAQDRYYSSSWSEWASVPCS",IFN-γ/IL-4,"[2]; line 1, established with IL-12",>100
same,IFN-γ,"[2]; line 1, established with IL-12",>500
same,IL-4,"[2]; line 1, established with IL-12",4.8
same,Proliferation,"[2]; line 1, established with IL-12",56593
same,IFN-γ/IL-4,"[2]; line 2, established with IL-12",207
same,IFN-γ,"[2]; line 2, established with IL-12",331.8
same,IL-4,"[2]; line 2, established with IL-12",1.6
same,Proliferation,"[2]; line 2, established with IL-12",42499
same,IFN-γ production,[3]; 1 ng/ml during the last week of culture,marked increase in IFN-γ production
same,Ratios of IFN-γ/IL-4 production,[3]; 1 ng/ml during the last week of culture (FIG. 22E),comparable to those in the healthy donors
"IL-7: cytokine added to T cell medium at 10 ng/ml (protein, UniProt P13232 26-177, looked up) Interleukin-7: DCDIEGKDGKQYESVLMVSIDQLLDSMKEIGSNCLNNEFNFFKRHICDANKEGMFLFRAARKLRQFLKMNSTGDFDLHLLKVSEGTTILLNCTGQVKGRKPAALGEAQPTKSLEENKSLKEQKKLNDLCFLKRLLQEIKTCWNKILMGTKEH",Yield of invariant T cells,invariant NK T cells,increased the yield of invariant T cells
same,Purity of invariant T cells,invariant NK T cells; [4],did not increase the purity of invariant T cells
